# Tests used:
# [1] = tested on: human serum proteins (thyroxine binding proteins, TBP); experiment: Dissociation of 125I-thyroxine from human serum proteins by HMS (Sephadex column); details: for Percent Dissociated in 5 Minutes / Percent Dissociated in 30 Minutes: pH 6.0, room temperature
# Description: Radioactive iodine-labeled thyroxine (^125 I-thyroxine obtained from New England Nuclear, Boston, MA USA) was equilibrated with 3.5 milliliter (mL) of normal human serum for 48 hours at 4° C. Aliquots of this serum [50 microliters (μL)] were added to 450 μL of 0.1 molar (M) sodium phosphate, pH 6.0, containing various concentrations of HMS to give the final concentrations given in Table 1. After 5 or 30 minutes of incubation at room temperature, a 500 μL aliquot was applied to a Sephadex column from a Seralute® thyroxine assay kit (Miles Laboratories, Inc., Ames Division, Elkhart, IN, USA), which has been equilibrated with 0.1 M sodium phosphate, pH 6.0. The total radioactivity applied to the columns was measured and the undissociated material was washed through the column. The columns were counted to determine the percentage of thyroxine dissociated from the serum proteins.
# serum proteins = experiment: Effect of pH on the dissociation of iodothyronine from serum proteins by HMS; format: binding; details: for % Dissociated: 1.0 mM HMS in MIX solution
# Description: Assays were performed in 3 ml polystyrene test tubes in duplicate. A solution (designated "MIX") was prepared containing 27 mL of 0.1 M sodium phosphate, at the stated pH, 73 mL of 21% polyethyleneglycol, 1.0 mM HMS, and 10 micrograms (μg) (40 μL) I-125-thyroxine for each 100 mL. Assay solutions are made up by addition of 50 μL of a serum sample, 0.1 mL of anti(thyroxine) antiserum diluted in 0.1 M sodium phosphate (at the given pH) and 1.0 mL of the MIX solution. Assays are included for maximum binding of label and nonspecific binding.
# apo(glucose oxidase) = apo(glucose oxidase) (Aspergillus niger, UniProt P13006); experiment: Effect of HMS on the activation of apo(glucose oxidase) by an FAD-labeled thyroxine conjugate; format: biochemical; details: 37° C, pH 6.5, five minute incubation, read-out: % Activity (absorbance at 520 nm as percentage of that with no HMS)
# Sequence of apo(glucose oxidase) (P13006 17-605): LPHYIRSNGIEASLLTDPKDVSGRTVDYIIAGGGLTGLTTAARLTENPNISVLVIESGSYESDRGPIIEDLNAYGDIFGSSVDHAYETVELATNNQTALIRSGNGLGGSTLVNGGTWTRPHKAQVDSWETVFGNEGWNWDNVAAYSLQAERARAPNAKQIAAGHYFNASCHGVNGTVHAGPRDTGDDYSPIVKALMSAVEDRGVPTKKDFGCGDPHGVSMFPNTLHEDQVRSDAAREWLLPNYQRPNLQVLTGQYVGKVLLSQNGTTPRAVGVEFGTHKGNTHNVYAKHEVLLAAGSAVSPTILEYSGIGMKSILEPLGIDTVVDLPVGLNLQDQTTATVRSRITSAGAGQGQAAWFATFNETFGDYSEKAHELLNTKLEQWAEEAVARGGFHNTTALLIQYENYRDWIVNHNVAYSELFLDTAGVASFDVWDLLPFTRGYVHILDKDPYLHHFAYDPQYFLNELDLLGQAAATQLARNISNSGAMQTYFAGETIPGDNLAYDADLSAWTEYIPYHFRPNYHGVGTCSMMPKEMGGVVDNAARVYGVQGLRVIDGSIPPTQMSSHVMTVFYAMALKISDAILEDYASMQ
# Description: The activation of apoglucose oxidase was set up with different concentrations of HMS and performed at 37° C. Assays containing 50 mM sodium phosphate, pH 6.5, 200 mM glucose, 2.0 mM sodium dichlorohydroxybenzene sulfonate (DHSA), 25 μg/mL peroxidase, various concentrations of HMS and 2.5 nM final concentration of a FAD-thyroxine conjugate (see U.S. Pat. No. 4,213,893) were started by adding apo(glucose oxidase), 4-aminoantipyrine, and anti(glucose oxidase) at final concentrations of 125 nM, 400 μM, and 8 μL/mL respectively. The absorbance at 520 nm was recorded after a five minute incubation. The data are presented in Table 3 as a percentage of the absorbance recorded when no HMS is present.
# [2] = Water solubility (statement); format: physicochemical
compound,measurement,setting,value
"COc1cc(O)c(C(=O)c2ccccc2)cc1S(=O)(=O)O [HMS, 2-hydroxy-4-methoxybenzophenone-5-sulfonic acid]",Percent Dissociated in 5 Minutes,[1]; HMS 1 mM,65%
same,Percent Dissociated in 30 Minutes,[1]; HMS 1 mM,73%
same,Percent Dissociated in 5 Minutes,[1]; HMS 2 mM,74%
same,Percent Dissociated in 30 Minutes,[1]; HMS 2 mM,84%
same,Percent Dissociated in 5 Minutes,[1]; HMS 4 mM,91%
same,Percent Dissociated in 30 Minutes,[1]; HMS 4 mM,94%
same,Percent Dissociated in 5 Minutes,[1]; HMS 6 mM,93%
same,Percent Dissociated in 30 Minutes,[1]; HMS 6 mM,95%
same,Dissociation of TBP-bound iodothyronine,[1]; concentration 4 mM,over 90%
same,Dissociation of TBP-bound iodothyronine,"[1]; reaction mixture concentration 1 mM, in a few minutes",over 50%
same,% Dissociated,serum proteins; pH 6.0,73%
same,% Dissociated,serum proteins; pH 6.5,73%
same,% Dissociated,serum proteins; pH 7.0,69%
same,% Dissociated,serum proteins; pH 7.5,72%
same,Effect of pH on the efficiency of dissociation,serum proteins; pH range 6.0-7.5,essentially no effect
same,activity at 50 µM,apo(glucose oxidase); HMS 0.05 mM,100%
same,activity at 100 µM,apo(glucose oxidase); HMS 0.10 mM,100%
same,activity at 500 µM,apo(glucose oxidase); HMS 0.50 mM,99%
same,activity at 1000 µM,apo(glucose oxidase); HMS 1.00 mM,97%
same,activity at 5000 µM,apo(glucose oxidase); HMS 5.00 mM,86%
same,activity at 10000 µM,apo(glucose oxidase); HMS 10.00 mM,72%
same,Water solubility,[2],highly water soluble

# Source: patent publication US4622293A, “Iodothyronine immunoassays employing HMS as TBP blocking agent” (Miles Laboratories, Inc., priority 1983, dated 1986)
